In patent publication EP2914280B1, “SOMATOSTATIN-DOPAMINE CHIMERIC ANALOGS” (IPSEN PHARMA S.A.S., priority 2012, dated 2014):
Read-outs that look alike come from different tables or passages of the source. Bridge positions count the residues as written; N and C are the ends. Square brackets hold non-standard residues; d marks the D form. Peptide text beside a SMILES is read from it. * marks the point of attachment. X2 = CN1C[C@H](CSCC(=O)*)C[C@@H]2c3cccc4[nH]cc(c34)C[C@H]21; 4Pal = N[C@@H](Cc1ccncc1)C(=O)O

Key:
[1] = molecular target: T1, hSSTR1 (Homo sapiens, UniProt P30872); assay: Somatostatin receptor radioligand binding assay (hSSTR1)
T1 construct: expressed in transfected cells; host or cells: CHO-K1 (ATCC), pcDNA3.1, G418-selected clonal line; membranes
T1 sequence (P30872 whole entry): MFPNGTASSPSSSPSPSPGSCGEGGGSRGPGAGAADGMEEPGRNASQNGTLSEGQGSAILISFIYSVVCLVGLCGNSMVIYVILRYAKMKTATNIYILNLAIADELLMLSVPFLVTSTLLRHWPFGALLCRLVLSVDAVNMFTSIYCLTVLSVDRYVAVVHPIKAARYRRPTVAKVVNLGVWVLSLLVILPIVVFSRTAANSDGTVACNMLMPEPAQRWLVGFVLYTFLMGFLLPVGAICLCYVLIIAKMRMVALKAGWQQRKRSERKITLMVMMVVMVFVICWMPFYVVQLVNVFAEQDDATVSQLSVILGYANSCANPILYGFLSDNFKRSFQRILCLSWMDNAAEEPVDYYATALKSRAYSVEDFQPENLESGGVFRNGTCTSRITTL
Method: (§1) The affinities of a test compound for the human somatostatin receptors were determined by radioligand binding assays in CHO-K1 cells stably transfected with each of the human somatostatin receptor subtypes, hSSTR1-5. […] Clonal cell lines stably expressing each of the somatostatin receptors were obtained by transfection into CHO-K1 cells (ATCC) and subsequently selected with culture media containing 0.8 mg/mL of G418 (Life Technologies).
(§2) Membranes for in vitro receptor binding assays were obtained by the following procedures. […] The supernatant containing the plasma membranes was centrifuged at 100,000 x g for 30 minutes and the pellet was resuspended in buffer containing 20 mM glycine-glycine, 1 mM MgCl2, 250 mM sucrose, pH 7.2, for storage at -80°C.
(§3) For the SSTR1, 2 and 5 assays, membranes and various concentrations of test compounds were incubated in 96-well plates for 60 minutes at 25°C with 0.05 nM [^125I-Tyr^11]-SRIF-14 (for hSSTR1; PerkinElmer Life Science), 0.05 nM [^125I-Tyr]-seglitide (for hSSTR2; PerkinElmer Life Science) or 0.05 nM [^125I-Tyr]-[DPhe-cyclo(Cys-Tyr-DTrp-Lys-Val-Cys)-Thr-NH2] (for hSSTR5; PerkinElmer Life Science) in 50 mM HEPES, 0.2% BSA, 0.1 mM MgCl2, pH 7.5.
(§4) The incubations were terminated by rapid filtration through GF/C glass microfiber filter plates (pre-wet with 0.3% polyethyleneimine and 0.1 % BSA) using a 96-well cell harvester (Brandel). Plates were washed six times with 1 mL/well aliquots of ice-cold buffer containing 50 mM Tris buffer, pH 7.7. Specific binding was defined as the total radioligand bound minus the bound in the presence of 1000 nM SRIF-14.

[2] = molecular target: T2, hSSTR2 (Homo sapiens, UniProt P30874); assay: Somatostatin receptor radioligand binding assay (hSSTR2);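 note: radioligand displacement on membranes of CHO-K1 cells stably transfected with human SSTR2, specific binding taken as total minus binding left with 1000 nM SRIF-14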
T2 construct: host or cells: 'Cells expressing hSSTR2'
T2 sequence (P30874 whole entry): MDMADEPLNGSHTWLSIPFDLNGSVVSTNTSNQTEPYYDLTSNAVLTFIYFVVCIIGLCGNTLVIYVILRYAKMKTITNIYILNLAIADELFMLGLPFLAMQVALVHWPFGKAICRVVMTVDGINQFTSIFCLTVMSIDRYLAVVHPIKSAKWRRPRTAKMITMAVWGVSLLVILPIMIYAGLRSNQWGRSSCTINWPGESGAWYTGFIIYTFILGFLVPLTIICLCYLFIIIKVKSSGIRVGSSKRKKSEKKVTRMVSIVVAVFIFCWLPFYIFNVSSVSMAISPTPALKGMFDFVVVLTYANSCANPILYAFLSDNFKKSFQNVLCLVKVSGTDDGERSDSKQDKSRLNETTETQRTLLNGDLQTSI
Method: as §1, §2, §3, §4

[3] = molecular target: T3, hSSTR5 (Homo sapiens, UniProt P35346); assay: Somatostatin receptor radioligand binding assay (hSSTR5); settings: CHO-K1 cell membranes; 0.05 nM [125I-Tyr]-[DPhe-cyclo(Cys-Tyr-DTrp-Lys-Val-Cys)-Thr-NH2]; 60 minutes at 25°C; read-out: hSSTR5 Ki (nM) ± SEM
T3 construct: expressed in transfected cells; host or cells: CHO-K1 (ATCC), pcDNA3.1, G418-selected clonal line; membranes
T3 sequence (P35346 whole entry): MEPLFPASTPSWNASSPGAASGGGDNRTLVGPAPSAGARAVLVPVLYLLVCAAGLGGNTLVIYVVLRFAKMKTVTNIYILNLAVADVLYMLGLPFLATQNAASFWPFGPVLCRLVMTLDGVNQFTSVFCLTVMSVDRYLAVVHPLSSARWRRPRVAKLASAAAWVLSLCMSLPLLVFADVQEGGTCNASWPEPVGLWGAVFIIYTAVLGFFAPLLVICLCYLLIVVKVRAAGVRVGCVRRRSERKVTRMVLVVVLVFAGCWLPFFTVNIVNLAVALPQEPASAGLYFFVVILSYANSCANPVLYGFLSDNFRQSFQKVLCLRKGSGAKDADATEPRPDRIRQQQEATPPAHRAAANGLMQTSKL
Method: as §1, §2, §3, §4

[4] = molecular target: T2, hSSTR2; assay: Intracellular calcium mobilization assay (FLIPR Calcium 4), hSSTR2; assay type: cell-based; settings: for improvement in EC50 over Reference Compound A: p value (Student's t-test, one-tailed) < 0.05;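 for all read-outs here: agonist activity measured in cells expressing hSSTR2, seeded in 384-well plates, loaded with Calcium 4 dye, read-out as rise in intracellular calcium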
[5] = molecular target: T4, hDRD2 (Homo sapiens, UniProt P14416); assay: cell-based; set-up: host or cells: 'Cells expressing hDRD2'; settings: for Emax: read-out: hDRD2 %Emax ± SEM
T4 sequence (P14416 whole entry): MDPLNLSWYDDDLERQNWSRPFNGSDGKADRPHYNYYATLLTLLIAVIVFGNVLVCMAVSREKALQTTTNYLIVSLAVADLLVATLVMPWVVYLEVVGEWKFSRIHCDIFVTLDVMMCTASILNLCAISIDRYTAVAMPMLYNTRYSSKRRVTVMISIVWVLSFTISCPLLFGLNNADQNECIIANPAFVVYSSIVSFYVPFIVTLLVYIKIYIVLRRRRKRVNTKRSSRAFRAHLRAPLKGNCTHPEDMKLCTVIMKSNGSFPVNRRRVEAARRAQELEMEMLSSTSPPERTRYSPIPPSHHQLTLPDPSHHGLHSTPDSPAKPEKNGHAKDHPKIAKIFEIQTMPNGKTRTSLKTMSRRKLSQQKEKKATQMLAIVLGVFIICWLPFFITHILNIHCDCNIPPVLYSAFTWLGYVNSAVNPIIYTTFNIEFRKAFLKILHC
Method: The ability of select compounds according to the present invention to activate hSSTR2 and hDRD2 was determined by the intracellular calcium mobilization assay using FLIPR Calcium 4 assay kit (Molecular Devices).
Cells expressing hSSTR2 or hDRD2 were plated in 384-well microplates in tissue culture media and incubated for 16-24 hours at 37°C in a humidified atmosphere with 5% CO2. Medium was replaced by loading buffer containing Hank's buffered saline, 20 mM HEPES, 2.5 mM probenecid and Calcium 4 dye, and the plates were incubated at 37°C for 60 minutes.

[6] = molecular target: T4, hDRD2; assay: biochemical; assay type: binding; set-up: expressed in transfected cells; host or cells: CHO-K1, pcDNA3.1/GS, zeocin-selected clonal line; membranes
[7] = CHO-K1 cell membranes, 0.05 nM [125I-Tyr11]-SRIF-14, 60 minutes at 25°C, read-out: hSSTR1 Ki (nM) ± SEM
[8] = CHO-K1 cell membranes, 0.05 nM [125I-Tyr]-seglitide, 60 minutes at 25°C, read-out: hSSTR2 Ki (nM) ± SEM
[9] = CHO-K1 cell membranes, […] [3H]-spiperone, 60 minutes at 25°C, read-out: hDRD2 Ki (nM) ± SEM
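Throughout, for Emax: agonist activity at human DRD2 in DRD2-expressing cells, read as intracellular calcium mobilization with a FLIPR Calcium 4 fluorescent dye.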

C[C@@H](O)[C@@H]1NC(=O)[C@H](CCCCN)NC(=O)[C@@H](Cc2c[nH]c3ccccc23)NC(=O)[C@H](Cc2ccccc2)NC(=O)[C@H](Cc2ccccc2)NC(=O)[C@H](CCCNC(=N)N)NC(=O)[C@H](NCCS(=O)(=O)C[C@@H]2C[C@@H]3c4cccc5[nH]cc(c45)C[C@H]3N(C)C2)CCCCNC(=O)[C@H](Cc2ccc(F)cc2)NC1=O [Compound 10, Dop1(SO2)-psi(CH2NH)-cyclo(DLys-Arg-Phe-Phe-DTrp-Lys-Thr-4FPhe)]
Ki [1]: 6.6 nM
Ki [2]: 0.17 ± 0.05 nM
Ki [3]: 0.16 ± 0.1 nM
EC50 [4]: 19.4 ± 2 nM
EC50 [5]: 24 ± 4.5 nM
Emax [5]: 92.8 ± 4%
Ki [6]: 56.4 ± 11.2 nM

C[C@@H](O)[C@@H]1NC(=O)[C@H](CCCCN)NC(=O)[C@@H](Cc2c[nH]c3ccccc23)NC(=O)[C@H](Cc2ccncc2)NC(=O)[C@H](Cc2ccccc2)NC(=O)[C@H](CCCNC(=N)N)NC(=O)[C@H](NCC[S@+]([O-])C[C@@H]2C[C@@H]3c4cccc5[nH]cc(c45)C[C@H]3N(C)C2)CCCCNC(=O)[C@H](Cc2ccc(O)cc2)NC1=O [Compound 11, Dop1[(R)SO]-psi(CH2NH)-cyclo(DLys-Arg-Phe-4Pa1-DTrp-Lys-Thr-Tyr)]
Ki [1]: 160 ± 22.5 nM
Ki [2]: 0.05 nM
Ki [3]: 0.09 nM
EC50 [4]: 2.4 ± 0.4 nM
EC50 [5]: 6.4 ± 0.9 nM
Emax [5]: 106 ± 3.5%
Ki [6]: 79.7 ± 21.4 nM

C[C@@H](O)[C@@H]1NC(=O)[C@H](CCCCN)NC(=O)[C@@H](Cc2c[nH]c3ccccc23)NC(=O)[C@H](Cc2ccncc2)NC(=O)[C@H](Cc2ccccc2)NC(=O)[C@H](CCCNC(=N)N)NC(=O)[C@H](NCC[S@@+]([O-])C[C@@H]2C[C@@H]3c4cccc5[nH]cc(c45)C[C@H]3N(C)C2)CCCCNC(=O)[C@H](Cc2ccc(O)cc2)NC1=O [Compound 12, Dop1[(S)SO]-psi(CH2NH)-cyclo(DLys-Arg-Phe-4Pal-DTrp-Lys-Thr-Tyr)]
Ki [1]: 98.9 ± 2.3 nM
Ki [2]: 0.06 ± 0.01 nM
Ki [3]: 0.74 ± 0.4 nM
EC50 [4]: 4.1 ± 1.4 nM
EC50 [5]: 76.3 ± 28.2 nM
Emax [5]: 99.8 ± 6%
Ki [6]: 255 ± 224 nM

C[C@@H](O)[C@@H]1NC(=O)[C@H](CCCCN)NC(=O)[C@@H](Cc2c[nH]c3ccccc23)NC(=O)[C@H](Cc2ccccc2)NC(=O)[C@H](Cc2ccccc2)NC(=O)[C@H](CCCNC(=N)N)NC(=O)[C@H](NC[C@H](Cc2ccc(O)cc2)NC(=O)C[S+]([O-])C[C@@H]2C[C@@H]3c4cccc5[nH]cc(c45)C[C@H]3N(C)C2)CCCCNC(=O)[C@H](Cc2ccc(F)cc2)NC1=O (stereo partly drawn) [Compound 13, Dop1(SO)-Tyr-psi(CH2NH)-cyclo(DLys-Arg-Phe-Phe-DTrp-Lys-Thr-4FPhe)]
Ki [1]: 8.6 nM
Ki [2]: 0.04 ± 0.02 nM
Ki [3]: 0.23 nM
EC50 [4]: 1.6 ± 0.1 nM
EC50 [5]: 9.2 ± 2.7 nM
Emax [5]: 93.9 ± 4.5%
Ki [6]: 32.5 ± 8.9 nM

C[C@@H](O)[C@@H]1NC(=O)[C@H](CCCCN)NC(=O)[C@@H](Cc2c[nH]c3ccccc23)NC(=O)[C@H](Cc2ccccc2)NC(=O)[C@H](Cc2ccccc2)NC(=O)[C@H](CCCNC(=N)N)NC(=O)[C@H](NCC[S+]([O-])C[C@@H]2C[C@@H]3c4cccc5[nH]cc(c45)C[C@H]3N(C)C2)CCCCNC(=O)[C@H](Cc2ccc(F)cc2)NC1=O (stereo partly drawn) [Compound 14, Dop1(SO)-psi(CH2NH)-cyclo(DLys-Arg-Phe-Phe-DTrp-Lys-Thr-4FPhe)]
Ki [1]: 6 nM
Ki [2]: 0.05 ± 0.01 nM
Ki [3]: 0.36 nM
EC50 [4]: 1.3 ± 0.1 nM
EC50 [5]: 8.7 ± 1.7 nM
Emax [5]: 103 ± 2.3%
Ki [6]: 76.5 ± 13.9 nM

C[C@@H](O)[C@@H]1NC(=O)[C@H](CCCCN)NC(=O)[C@@H](Cc2c[nH]c3ccccc23)NC(=O)[C@H](Cc2ccncc2)NC(=O)[C@H](Cc2ccccc2)NC(=O)[C@H](CCCNC(=N)N)NC(=O)[C@H](NC[C@H](Cc2ccc(O)cc2)NC(=O)C[S+]([O-])C[C@@H]2C[C@@H]3c4cccc5[nH]cc(c45)C[C@H]3N(C)C2)CCCCNC(=O)[C@H](Cc2ccccc2)NC1=O (stereo partly drawn) [Compound 15, Dop1(SO)-Tyr-psi(CH2NH)-cyclo(DLys-Arg-Phe-4Pal-DTrp-Lys-Thr-Phe)]
Ki [1]: 64.4 nM
Ki [2]: 0.02 ± 0.01 nM
Ki [3]: 0.08 nM
EC50 [4]: 1.6 ± 0.3 nM
EC50 [5]: 7.4 ± 0.4 nM
Emax [5]: 94.6 ± 0.8%
Ki [6]: 149 ± 11.3 nM

C[C@@H](O)[C@@H]1NC(=O)[C@H](CCCCN)NC(=O)[C@@H](Cc2c[nH]c3ccccc23)NC(=O)[C@H](Cc2ccncc2)NC(=O)[C@H](Cc2ccccc2)NC(=O)[C@H](CCCNC(=N)N)NC(=O)[C@H](NC[C@H](CCCCNC(=O)C[S+]([O-])C[C@@H]2C[C@@H]3c4cccc5[nH]cc(c45)C[C@H]3N(C)C2)NC(=O)C[S+]([O-])C[C@@H]2C[C@@H]3c4cccc5[nH]cc(c45)C[C@H]3N(C)C2)CCCCNC(=O)[C@H](Cc2ccccc2)NC1=O (stereo partly drawn) [Compound 17, Dop1(SO)-Lys[Dop1(SO)]-psi(CH2NH)-cyclo(DLys-Arg-Phe-4Pal-DTrp-Lys-Thr-Phe)]
Ki [1]: 91.4 nM
Ki [2]: 0.08 ± 0.05 nM
Ki [3]: 0.86 nM
EC50 [4]: 10.3 ± 2 nM
EC50 [5]: 10.2 ± 2.2 nM
Emax [5]: 96.9 ± 1.2%
Ki [6]: 67.6 ± 18.4 nM

C[C@@H](O)[C@@H]1NC(=O)[C@H](CCCCN)NC(=O)[C@@H](Cc2c[nH]c3ccccc23)NC(=O)[C@H](Cc2ccncc2)NC(=O)[C@H](Cc2ccccc2)NC(=O)[C@H](CCCNC(=N)N)NC(=O)[C@H](NCCS(=O)(=O)C[C@@H]2C[C@@H]3c4cccc5[nH]cc(c45)C[C@H]3N(C)C2)CCCCNC(=O)[C@H](Cc2ccc(O)cc2)NC1=O [Compound 20, Dop1(SO2)-psi(CH2NH)-cyclo(DLys-Arg-Phe-4Pal-DTrp-Lys-Thr-Tyr)]
Ki [1, 7]: 689 nM
Ki [2, 8]: 0.02 ± 0.01 nM
Ki [3]: 0.33 nM
Emax [5]: 101.5 ± 0.6%
Ki [6, 9]: 115 ± 41.3 nM

C[C@@H](O)[C@@H]1NC(=O)[C@H](CCCCN)NC(=O)[C@@H](Cc2c[nH]c3ccccc23)NC(=O)[C@H](Cc2ccncc2)NC(=O)[C@H](Cc2ccccc2)NC(=O)[C@H](CCCNC(=N)N)NC(=O)[C@H](NC(=O)CSC[C@@H]2C[C@@H]3c4cccc5[nH]cc(c45)C[C@H]3N(C)C2)CCCCNC(=O)[C@H](Cc2ccccc2)NC1=O [Compound 24, Dop1-cyclo(DLys-Arg-Phe-4Pal-DTrp-Lys-Thr-Phe)] (X2-[dK]RF[4Pal][dW]KTF; lactam 1-C)
Ki [1, 7]: 47.7 ± 30.7 nM
Ki [2, 8]: 0.08 ± 0.01 nM
Ki [3]: 2.39 nM
improvement in EC50 over Reference Compound A ([4]; receptor not named): statistically significant improvement in EC50
EC50 value lower than that for Reference Compound A ([4]; ratio to Reference Compound A, receptor not named, figures fit hSSTR2): about 9 fold
Emax [5]: 87.8 ± 4%
Ki [6, 9]: 175 ± 25.6 nM

C[C@@H](O)[C@@H]1NC(=O)[C@H](CCCCN)NC(=O)[C@@H](Cc2c[nH]c3ccccc23)NC(=O)[C@H](Cc2ccncc2)NC(=O)[C@H](Cc2ccccc2)NC(=O)[C@H](CCCNC(=N)N)NC(=O)[C@H](NC(=O)CSC[C@@H]2C[C@@H]3c4cccc5[nH]cc(c45)C[C@H]3N(C)C2)CCCCNC(=O)[C@H](Cc2ccc(O)cc2)NC1=O [Compound 25, Dop1-cyclo(DLys-Arg-Phe-4Pal-DTrp-Lys-Thr-Tyr)] (X2-[dK]RF[4Pal][dW]KTY; lactam 1-C)
Ki [1]: 41.9 ± 17.6 nM
Ki [2]: 0.05 ± 0.01 nM
Ki [3]: 0.95 ± 0.1 nM
EC50 [4]: 3.4 ± 1 nM
improvement in EC50 over Reference Compound A ([4]; receptor not named): statistically significant improvement in EC50
EC50 [5]: 27 ± 3.3 nM
Emax [5]: 82.5 ± 7.6%
Ki [6]: 272 ± 119 nM

C[C@@H](O)[C@@H]1NC(=O)[C@H](CCCCN)NC(=O)[C@@H](Cc2c[nH]c3ccccc23)NC(=O)[C@H](Cc2ccccc2)NC(=O)[C@H](Cc2ccccc2)NC(=O)[C@H](CCCNC(=N)N)NC(=O)[C@H](NC[C@H](CCCCNC(=O)CSC[C@@H]2C[C@@H]3c4cccc5[nH]cc(c45)C[C@H]3N(C)C2)NC(=O)CSC[C@@H]2C[C@@H]3c4cccc5[nH]cc(c45)C[C@H]3N(C)C2)CCCCNC(=O)[C@H](Cc2ccc(F)cc2)NC1=O [Compound 47, Dop1-Lys(Dop1)-psi(CH2NH)-cyclo(DLys-Arg-Phe-Phe-DTrp-Lys-Thr-4FPhe)]
Ki [1, 7]: 29 nM
Ki [2, 8]: 0.58 ± 0.27 nM
improvement in %Emax over Reference Compound C ([4]; receptor not named): statistically significant improvement in %Emax
Emax [5]: 92.5 ± 0.8%
Ki [6, 9]: 84.2 ± 7.5 nM
